Measured values taken from patent publication US8969080B2, “Remedy for the treatment of cardio-vascular diseases or disorders” (Max-Delbrueck-Centrum fuer Molekulare Medizin, priority 2007, dated 2015).

Key:
[1] = system: β-catenin dependent transcription; test: topflash reporter gene assay in isolated neonatal rat cardiomyocytes; type: cell-based; settings: co-transfection of KLF15; reporter activated by stabilized β-catenin (ΔN-catenin)
Experimental: (§1) The transcription factor Krüppel-like factor (KLF) 15 inhibits β-catenin dependent transcription in isolated cardiomyocytes through a direct interaction of its C-terminal end as shown by topflash reporter gene assay and immunoprecipitation assays (FIG. 9 A). Isolated neonatal rat cardiomyocytes were used as a model system to analyze factors inhibiting β-catenin dependent gene regulation. β-catenin dependent transcription was measured by reporter gene assay. […] Concerning the molecular mechanisms, KLF15 mutants were analyzed concerning their direct protein interaction to β-catenin employing immunoprecipitation analysis (FIG. 9 B). The interacting domain was mapped to the N-terminus between amino acids 1 and 45 (FIG. 9 B), where as the C-terminus was also required for the transcriptional repressive function.
(§2) Inhibition of β-catenin-dependent gene transcription by KLF15. (A) Reporter gene assay in isolated neonatal cardiomyocytes showing activation of the topflash reporter gene by stabilized β-catenin (ΔN-catenin; dN). A dose-dependent inhibition is observed by co-transfection of KLF15.

[2] = biological target: T1, β-catenin (Homo sapiens, UniProt P35222); test: co-immunoprecipitation of KLF15 and KLF15 mutants with β-catenin; type: binding; settings: full length KLF15
T1 sequence (P35222 1-781): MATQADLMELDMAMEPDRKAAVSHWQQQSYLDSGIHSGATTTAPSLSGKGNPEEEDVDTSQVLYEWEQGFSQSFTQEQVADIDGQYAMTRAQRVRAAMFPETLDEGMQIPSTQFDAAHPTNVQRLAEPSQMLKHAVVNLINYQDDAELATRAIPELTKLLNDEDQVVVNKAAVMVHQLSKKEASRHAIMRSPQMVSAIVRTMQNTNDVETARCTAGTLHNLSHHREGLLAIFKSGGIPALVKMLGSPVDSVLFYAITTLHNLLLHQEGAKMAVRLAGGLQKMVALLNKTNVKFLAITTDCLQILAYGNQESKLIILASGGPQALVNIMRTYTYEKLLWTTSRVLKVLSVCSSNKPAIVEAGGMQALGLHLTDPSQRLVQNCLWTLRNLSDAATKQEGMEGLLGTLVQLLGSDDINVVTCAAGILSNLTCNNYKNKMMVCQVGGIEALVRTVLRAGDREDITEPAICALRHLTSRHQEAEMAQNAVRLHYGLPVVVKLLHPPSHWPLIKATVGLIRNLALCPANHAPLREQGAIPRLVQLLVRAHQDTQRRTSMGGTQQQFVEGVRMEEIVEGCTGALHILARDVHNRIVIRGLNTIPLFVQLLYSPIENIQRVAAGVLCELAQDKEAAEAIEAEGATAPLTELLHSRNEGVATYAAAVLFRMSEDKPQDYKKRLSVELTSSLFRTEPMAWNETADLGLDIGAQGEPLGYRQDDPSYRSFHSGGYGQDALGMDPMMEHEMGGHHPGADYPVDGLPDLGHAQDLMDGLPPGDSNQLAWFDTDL
Experimental: as §1, §2

[3] = system: mice; test: AngII infusion by minipump in control, β-catenin depleted and β-catenin stabilized mice; type: in vivo, mouse
Experimental: After 12 days' AngII infusion at pressure doses (1.4 μg Kg^−1 min^−1), control animals developed hypertrophy as judged by echocardiography, gene regulation, in vivo cross sectional area, and heart/body weight ratio as described before (FIG. 4). From the M-mode echocardiography imaging, a thickened inter-ventricular septum and LV posterior wall after AngII was identified in control animals (FIG. 4A). […] LV wall thickening was identical in β-catenin heart-depleted animals and control littermates after AngII (data not shown). […] Moreover, AngII increased gene expression of several hypertrophy gene markers in both control and b-catenin heart-depleted animals with the exception of β-myosin heavy chain (FIG. 4 C). A lack of β-MHC upregulation in response to stress stimuli might be indicative of adaptive cardiac remodeling preserving LV-function as described before (van Rooij E et al., Circ Res. 2004; 94:18e-26).
The effects of 12 days' AngII infusion in mice with cardiac stabilized β-catenin (β-cat^Δex3) were opposite in kind to those of mice with β-catenin heart-depletion. […] ANP (β-cat^Δex3 0.4±0.15; β-cat^Δex3+AngII 1.03±0.15; p<0.01) and BNP (β-cat^Δex3 0.43±0.24; β-cat^Δex3+AngII 1.4±0.27; p<0.01) expression was induced by AngII but final values were generally lower than in control mice (ANP: CT+AngII 2.3±0.8; BNP: CT+AngII 2.6±0.6).
As expected, fractional shortening increased in control mice after AngII treatment (31.1±1.6% to 36.2±1.6%). However, β-catenin heart-stabilization led to reduced fractional shortening after AngII infusion (34.7±2.9% to 22.4±4.5%, p<0.05). These absolute values in animals aged 10 to 14 weeks are identical to a serial analysis of the age-dependant changes employing the same high-resolution echo techniques as used for these studies. […] These absolute values are similar to other reports, i.e. rates of apoptotic cardiomyocytes after trans-aortic constriction. Moreover, no significant differences concerning fibrosis occurring focally throughout the LV wall was observed when both transgenic models were to their respective controls.
Representative examples of M-mode echocardiograms (not shown), quantification of echocardiographic parameters and heart/body weight from control and β-cat^Δex3-6 mice with and without AngII infusion are shown (n≧6 for each group) (B) Myocyte cross-sectional area increases in both control and β-catenin depleted β-cat^Δex3-6 mice as measured by WGA-FITC staining of cardiac tissue sections and quantification from control or β-cat^Δex3-6 mice with AngII infusion (data not shown). At least 500 cells were measured for each animal, n≧4 mice per group. (C) Significant upregulation of ANP, BNP and α-sarcomeric actin normalized to GAPDH after AngII in control and β-catenin depleted β-cat^Δex3-6 mice. Quantification by real-time PCR of whole heart RNA samples from control (white) or β-cat^Δex3-6 (grey) mice without (open bars) and with (shaded bars) AngII infusion. *=P<0.05, **=P<0.01, ***=P<0.001.
(A) Attenuation of cardiac hypertrophy after AngII in β-catenin stabilized mice is accompanied by significant deterioration of systolic function as measured by fractional shortening (right bar graph). Representative examples of M-mode echocardiograms and quantification from control or β-cat^Δex3 mice with and without AngII infusion. Quantification of echocardiographic wall size and fractional shortening from control or β-cat^Δex3 mice with and without AngII infusion. *=P<0.05, **=P<0.01. (B) Increase of myocyte cross-sectional area after AngII is attenuated in β-catenin stabilized β-cat^Δex3 mice (data not shown). At least 400 cells counted per animal, mice per group. ***=P<0.001. (C) Rates of TUNEL/α-sarcomeric actin/DAPI-positive cardiomyocytes after AngII infusion decrease after β-catenin stabilization in β-cat^Δex3. In addition to the TUNEL-assay, slides were co-stained with α-sarcomeric actin and DAPI in control mice and β-cat^Δex3 mice before and after AngII stimulation (data not shown).

| direct protein interaction to β-catenin (immunoprecipitation) [2] | Substance | topflash reporter gene activation [1] | cardiomyocyte size following AngII treatment ([3]; CT animals of the β-catenin stabilization model) | TUNEL-positive cells after AngII ([3]; CT of the β-catenin depletion model, baseline 0.004±0.004) [%] | ANP expression ([3]; CT+AngII) | BNP expression ([3]; CT+AngII) | TUNEL/α-sarcomeric actin/DAPI-positive cells after AngII ([3]; CT+AngII, β-catenin stabilization model) [%] | Axin2 levels (whole heart RNA) ([3]; both control and β-catenin stabilized mice) | cellular cross sectional area ([3]; control mice of the β-catenin depletion model, after 12 days' AngII infusion) | fractional shortening after AngII ([3]; control mice, baseline 31.1±1.6%) [%] | Tbx5 gene expression ([3]; control mice, effect lost in β-catenin stabilized mice) | ANP expression ([3]; β-cat^Δex3+AngII, baseline 0.4±0.15) | BNP expression ([3]; β-cat^Δex3+AngII, baseline 0.43±0.24) | TUNEL-positive cells after AngII ([3]; β-cat^Δex3-6 mice, baseline 0.112±0.044%) [%] | cardiomyocyte size following AngII treatment ([3]; β-cat^Δex3 mice) | TUNEL/α-sarcomeric actin/DAPI-positive cells after AngII ([3]; β-cat^Δex3 mice, baseline 0.058±0.027%) [%] | cellular cross sectional area ([3]; β-catenin depleted mice (β-cat^Δex3-6), after 12 days' AngII infusion 1.4 μg Kg^−1 min^−1) | fractional shortening after AngII ([3]; β-catenin heart-stabilized mice, baseline 34.7±2.9%) [%] |
| --- | --- | --- | --- | --- | --- | --- | --- | --- | --- | --- | --- | --- | --- | --- | --- | --- | --- | --- |
| interaction | KLF15: transcription factor Krüppel-like factor 15, co-transfected; inhibits β-catenin dependent transcription | inhibit topflash reporter gene activation dose dependendly | – | – | – | – | – | – | – | – | – | – | – | – | – | – | – | – |
| – | Angiotensin II (DRVYIHPF; Angiotensin-2; UniProt P01019 25-32, looked up) [AngII, hypertrophic stress stimulus infused by minipump] | – | 9.07×10^7±0.14×10^7 | 0.09±0.02 | 2.3±0.8 | 2.6±0.6 | 0.297±0.025 | increased | 12.3×10^7±0.19×10^7 a.u. | 36.2±1.6 | significantly downregulated | 1.03±0.15 | 1.4±0.27 | 0.2±0.13 | 8.14×10^7±0.14×10^7 | 0.120±0.049 | 12.1×10^7±0.24×10^7 a.u. | 22.4±4.5 |
